Data reported in patent US9969887B2, “Merocyanine-based compounds, and dyes, kits and contrast medium compositions for labelling biomolecules comprising the same” (SFC CO., LTD., priority 2016, dated 2018).
“Also recorded” adds a separate entry of the source.

How the values were obtained:
[1] = Absorption and emission spectra, molar extinction coefficient and quantum efficiency in solvent; assay type: physicochemical
Method: Absorption spectra (λabs), emission spectra (λem), molar extinction coefficient (ε) and quantum efficiency of compounds 1 to 8 obtained in Preparation Examples 1 to 4, and commercially available SYBR® safe were measured and shown in Table 1 below.
Absorption spectra (λabs), emission spectra (λem), molar extinction coefficient (ε) and quantum efficiency of Compounds 36 to 39 obtained in Preparation Examples 6 and 7 and commercially available SYBR® safe were measured and shown in Table 2 below.

[2] = system: DNA; test: Absorption and emission spectra and quantum efficiency in the presence of DNA; assay type: physicochemical
Method: Absorption spectra (λabs), emission spectra (λem) and quantum efficiency measured in the presence of DNA with compounds 1 to 8 and 36 to 39, and commercially available SYBR® safe were measured and are shown in Table 3 below.

[3] = system: Salmonella typhimurium TA98 strain; test: Ames test with S9 mixture; settings: for Number of colonies per plate: TA98, S9 mixture
[4] = Thermal stability test, absorbance on standing at 95° C. in PCR reaction buffer; assay type: physicochemical
Method: In order to confirm the stability of the fluorescent dye in the PCR reaction, 20 μL of PCR reaction buffer containing 1 μL of Compound 38 and 1 μL of EvaGreen™ (Biotium), respectively, was prepared. Each PCR reaction buffer was heated to 95° C., and the absorbance which varies with the standing time at 95° C. was measured.

[5] = Photobleaching test; assay type: physicochemical; settings: low concentration
Method: Real-Time PCR was performed in a 20 μL reaction solution containing only 5 μL of fluorescent dyes (Compound 38, SYBR® green I (Invitrogen) or EvaGreen™ (Biotium)) at various concentrations (dilution times). Cycles of 30 seconds at 25° C. and 30 seconds at 25° C. were repeated 60 times. Fluorescence intensity was measured for each cycle (1 minute) to observe photobleaching of fluorescent dyes at various concentrations (dilution times).

[6] = system: Hela cells; test: Cell permeability test; assay type: cell-based; settings: 1 μM, 37° C., 30 minutes, microscope
Method: Hela cells were cultured in MEM medium containing 10% fetal bovine serum (FBS) and 1% penicillin/streptomycin (10,000 units penicillin and 10,000 μg/mL streptomycin, Invitrogen) under a humidified atmosphere of CO2 at 37° C. Hela cells were washed with medium No. 3, and 1 μM of SYBR® safe and Compound 6 were treated with Hela Cells and cultured at 37° C. for 30 minutes.

Row | Quantum efficiency ([1]; DMSO) | ε (molar extinction coefficient) ([1]; DMSO) | λabs ([1]; DMSO) | λem ([1]; DMSO) | Quantum efficiency ([1]; buffer) | ε (molar extinction coefficient) ([1]; buffer) | λabs ([1]; buffer) | λem ([1]; buffer) | Quantum efficiency [2] | λabs [2] | λem [2] | SMILES | other results
1 | 0.52 | 109,000 M^−1cm^−1 | 517 nm | 567 nm | 0.03 | 92,000 M^−1cm^−1 | 484 nm | 568 nm | 1.00 | 517 nm | 541 nm | O=C(CCCCCN1C=CC2=C3c4sc5ccccc5[n+]4CCC3Oc3cccc1c32)NCCOCCNC(=O)CCCCCN1C=CC2=C3c4sc5ccccc5[n+]4CCC3Oc3cccc1c32 (stereo not shown) [Compound 1] | 
2 | 0.88 | 101,000 M^−1cm^−1 | 517 nm | 566 nm | 0.08 | 83,000 M^−1cm^−1 | 484 nm | 565 nm | 0.93 | 517 nm | 541 nm | O=C(CCCCCN1C=CC2=C3c4sc5ccccc5[n+]4CCC3Oc3cccc1c32)NCCCOCCOCCOCCCNC(=O)CCCCCN1C=CC2=C3c4sc5ccccc5[n+]4CCC3Oc3cccc1c32 (stereo not shown) [Compound 2] | 
3 | 0.73 | 95,000 M^−1cm^−1 | 517 nm | 565 nm | 0.03 | 85,000 M^−1cm^−1 | 484 nm | 566 nm | 0.88 | 517 nm | 539 nm | O=C(CCCCCN1C=CC2=C3c4sc5ccccc5[n+]4CCC3Oc3cccc1c32)NCCOCCOCCOCCNC(=O)CCCCCN1C=CC2=C3c4sc5ccccc5[n+]4CCC3Oc3cccc1c32 (stereo not shown) [Compound 4] | 
4 | 0.64 | 73,000 M^−1cm^−1 | 517 nm | 564 nm | 0.05 | 60,000 M^−1cm^−1 | 484 nm | 562 nm | 0.86 | 517 nm | 537 nm | O=C(CCCCCN1C=CC2=C3c4sc5ccc(Cl)cc5[n+]4CCC3Oc3cccc1c32)NCCOCCNC(=O)CCCCCN1C=CC2=C3c4sc5ccc(Cl)cc5[n+]4CCC3Oc3cccc1c32 (stereo not shown) [Compound 5] | 
5 | 0.64 | 83,000 M^−1cm^−1 | 517 nm | 563 nm | 0.06 | 75,000 M^−1cm^−1 | 484 nm | 560 nm | 0.71 | 517 nm | 538 nm | O=C(CCCCCN1C=CC2=C3c4sc5ccc(Cl)cc5[n+]4CCC3Oc3cccc1c32)NCCOCCOCCOCCNC(=O)CCCCCN1C=CC2=C3c4sc5ccc(Cl)cc5[n+]4CCC3Oc3cccc1c32 (stereo not shown) [Compound 7] | 
6 | 0.71 | 89,000 M^−1cm^−1 | 517 nm | 563 nm | 0.04 | 78,000 M^−1cm^−1 | 484 nm | 565 nm | 0.80 | 517 nm | 538 nm | O=C(CCCCCN1C=CC2=C3c4sc5ccc(Cl)cc5[n+]4CCC3Oc3cccc1c32)NCCCOCCOCCOCCCNC(=O)CCCCCN1C=CC2=C3c4sc5ccc(Cl)cc5[n+]4CCC3Oc3cccc1c32 (stereo not shown) [Compound 8] | 
7 | 0.65 | 95,000 M^−1cm^−1 | 492 nm | 520 nm | 0.12 | 83,000 M^−1cm^−1 | 458 nm | 526 nm | 0.67 | 492 nm | 511 nm | O=C(CCCCCN1C=CC2=C3c4oc5ccccc5[n+]4CCC3Oc3cccc1c32)NCCOCCNC(=O)CCCCCN1C=CC2=C3c4oc5ccccc5[n+]4CCC3Oc3cccc1c32 (stereo not shown) [Compound 36] | 
8 | 0.63 | 100,000 M^−1cm^−1 | 492 nm | 520 nm | 0.14 | 85,000 M^−1cm^−1 | 458 nm | 524 nm | 0.64 | 492 nm | 512 nm | O=C(CCCCCN1C=CC2=C3c4oc5ccccc5[n+]4CCC3Oc3cccc1c32)NCCOCCOCCNC(=O)CCCCCN1C=CC2=C3c4oc5ccccc5[n+]4CCC3Oc3cccc1c32 (stereo not shown) [Compound 37] | 
9 | 0.67 | 110,000 M^−1cm^−1 | 492 nm | 520 nm | 0.17 | 95,000 M^−1cm^−1 | 459 nm | 522 nm | 0.76 | 492 nm | 512 nm | O=C(CCCCCN1C=CC2=C3c4oc5ccccc5[n+]4CCC3Oc3cccc1c32)NCCOCCOCCOCCNC(=O)CCCCCN1C=CC2=C3c4oc5ccccc5[n+]4CCC3Oc3cccc1c32 (stereo not shown) [Compound 38] | high temperature stability ([4]; 95° C., compared with EvaGreen): greater than EvaGreen™; Absorbance ([4]; standing time 0 hr at 95° C.): 0.127; Absorbance ([4]; standing time 0.5 hr at 95° C.): 0.149; Absorbance ([4]; standing time 1 hr at 95° C.): 0.162; Absorbance ([4]; standing time 2 hr at 95° C.): 0.163; Absorbance ([4]; standing time 3 hr at 95° C.): 0.178
10 | 0.70 | 116,000 M^−1cm^−1 | 492 nm | 520 nm | 0.15 | 98,000 M^−1cm^−1 | 459 nm | 523 nm | 0.70 | 492 nm | 513 nm | O=C(CCCCCN1C=CC2=C3c4oc5ccccc5[n+]4CCC3Oc3cccc1c32)NCCCOCCOCCOCCCNC(=O)CCCCCN1C=CC2=C3c4oc5ccccc5[n+]4CCC3Oc3cccc1c32 (stereo not shown) [Compound 39] | 
11 |  |  |  |  |  |  |  |  |  |  |  | CC[n+]1c(-c2ccccc2)c2cc(N)ccc2c2ccc(N)cc21.[Br-] [EtBr, ethidium bromide, reference compound] | Number of colonies per plate ([3]; 40 μg/plate): 3051 ± 181
12 |  |  |  |  |  |  |  |  |  |  |  | CCCN(CCCN(C)C)c1cc(/C=C2/Sc3ccccc3N2C)c2ccccc2[n+]1-c1ccccc1 [SYBR ® green I] | half-life (photobleaching) [5]: 5.5 h

Row | SMILES | Quantum efficiency ([1]; DMSO) | ε (molar extinction coefficient) ([1]; DMSO) | λabs ([1]; DMSO) | λem ([1]; DMSO) | Quantum efficiency ([1]; buffer) | ε (molar extinction coefficient) ([1]; buffer) | λabs ([1]; buffer) | λem ([1]; buffer) | Quantum efficiency [2] | λabs [2] | λem [2] | other results
13 | O=C(CCCCCN1C=CC2=C3c4sc5ccccc5[n+]4CCC3Oc3cccc1c32)NCCOCCOCCNC(=O)CCCCCN1C=CC2=C3c4sc5ccccc5[n+]4CCC3Oc3cccc1c32 (stereo not shown) [Compound 3] | 0.55 | 84,000 M^−1cm^−1 | 517 nm | 565 nm | 0.03 | 66,000 M^−1cm^−1 | 484 nm | 564 nm | 0.86 | 517 nm | 540 nm | 
14 | O=C(CCCCCN1C=CC2=C3c4sc5ccc(Cl)cc5[n+]4CCC3Oc3cccc1c32)NCCOCCOCCNC(=O)CCCCCN1C=CC2=C3c4sc5ccc(Cl)cc5[n+]4CCC3Oc3cccc1c32 (stereo not shown) [Compound 6] | 0.62 | 70,000 M^−1cm^−1 | 517 nm | 563 nm | 0.04 | 60,000 M^−1cm^−1 | 484 nm | 564 nm | 0.73 | 517 nm | 538 nm | Number of colonies per plate ([3]; 8 μg/plate): 24 ± 6; Number of colonies per plate ([3]; 40 μg/plate): 57 ± 3; genotoxicity (Ames test), in words ([3]; TA98, S9 metabolic activity): no significant increase in colony counts; also recorded: lower genotoxicity than SYBR® safe
15 | CCC[n+]1ccc(/C=C2\Sc3ccccc3N2C)c2ccccc21 [SYBR ® safe, reference compound] | 0.006 | 77,000 M^−1cm^−1 | 509 nm |  | 0.006 | 57,000 M^−1cm^−1 | 502 nm |  | 0.021 | 503 nm | 535 nm | cell permeability [6]: shows cell permeability; Number of colonies per plate ([3]; 1.6 μg/plate): 81 ± 7
